# *1 amine or outer side, *2 acyl side, *3 side chain or, on linkers, in order; H or OH if unused. Where a SMILES comes first, the peptide text is derived from it. Bridges are numbered along the chain shown (N, C = ends). [ ]: non-standard residue; d: D form. The star is where a group is joined. ξ: configuration not given here. Phe(3-CF3) = N[C@@H](Cc1cccc(C(F)(F)F)c1)C(=O)O; Ala(morpholin-4-yl) = N[C@@H](CN1CCOCC1)C(=O)O; Phe(4-COOH) = N[C@@H](Cc1ccc(C(=O)O)cc1)C(=O)O; Bip = N[C@@H](Cc1ccc(-c2ccccc2)cc1)C(=O)O; γGlu = O=C(O)[C@H](CCC(=O)[*:2])N[*:1]; NH(CH2)12COOH = O=C(O)CCCCCCCCCCCCN*; ξγGlu = O=C(O)C(CCC(=O)[*:2])N[*:1]; Val(3-OH) = CC(C)(O)[C@H](N)C(=O)O; Cha = N[C@@H](CC1CCCCC1)C(=O)O; Cit = NC(=O)NCCC[C@H](N)C(=O)O; Carboxymethyl = O=C(O)C*; NMeA = CN[C@@H](C)C(=O)O; Dab = NCC[C@H](N)C(=O)O; AEEA = NCCOCCOCC(=O)O
# Target: T1, PD-1/PD-L1 interaction (PE-labeled human PD-L1-Ig binding to Jurkat cell line over-expressing human PD-1) (Homo sapiens, UniProt Q15116)
# T1 construct: expressed in transfected cells; host or cells: Jurkat
# Test: Jurkat-PD-1 Cell Binding High-Content Screening Assay (CBA)
# Settings: Jurkat-hPD-1 cells, PE-labeled PD-L1-Ig 20 nM final; read-out: Jurkat HPD1 PDL1 IC50
# In short: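 In this imaging assay, cells in 10% FCS medium see compound for 2 h at 37 °C and then labeled ligand at 20 nM final for 1 h. Paraformaldehyde fixation, Hoechst 33342 staining and dPBS washes precede image capture.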
# T1 sequence (Q15116 25-288): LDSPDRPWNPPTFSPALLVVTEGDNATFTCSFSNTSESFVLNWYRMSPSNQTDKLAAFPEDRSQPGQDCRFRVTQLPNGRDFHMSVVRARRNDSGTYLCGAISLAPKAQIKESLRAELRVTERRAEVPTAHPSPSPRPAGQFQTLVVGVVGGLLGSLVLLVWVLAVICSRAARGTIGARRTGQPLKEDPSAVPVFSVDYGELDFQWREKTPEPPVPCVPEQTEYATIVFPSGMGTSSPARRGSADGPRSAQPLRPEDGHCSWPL
row,Compound,IC50
1,COC[C@@H]1NC(=O)CSC[C@@H](C(=O)N[C@@H](CCN)C(=O)NCCOCCOCC(=O)NC(CCC(=O)NCCOCCOCC(=O)NCCCCCCCCCCCCC(=O)O)C(=O)O)NC(=O)[C@H](CCCCNC(C)=O)NC(=O)[C@H](C(C)(C)O)NC(=O)[C@H](CC2CCCCC2)NC(=O)[C@H](CCN)NC(=O)[C@@H](CC(C)C)NC(=O)[C@H](C)N(C)C(=O)[C@H](CCCNC(N)=O)NC(=O)[C@H](Cc2ccc(-c3ccccc3)cc2)NC(=O)[C@H](Cc2ccc(C(=O)O)cc2)NC(=O)[C@H](Cc2cccc(C(F)(F)F)c2)NC(=O)[C@H](CC(=O)O)NC(=O)[C@H](Cc2ccc(OCC(=O)O)cc2)NC1=O (stereo partly drawn) [Example 1168] ({CH2CO}-S(Me)Y(Carboxymethyl)D[Phe(3-CF3)][Phe(4-COOH)][Bip][Cit][NMeA][dL][Dab][Cha][Val(3-OH)]K(Ac)C[Dab][AEEA][ξγGlu][AEEA]-{NH(CH2)12COOH}; thioether N-14),0.0148 µM
2,COC[C@@H]1NC(=O)CSC[C@@H](C(=O)N[C@@H](CCN)C(=O)NCCOCCOCC(=O)N[C@@H](CCC(=O)NCCOCCOCC(=O)NCCCCCCCCCCCCC(=O)O)C(=O)O)NC(=O)[C@H](CCC(=O)O)NC(=O)[C@H](C(C)C)NC(=O)[C@H](CC2CCCCC2)NC(=O)[C@H](CCN)NC(=O)[C@@H](CC(C)C)NC(=O)[C@H](C)N(C)C(=O)[C@H](Cc2ccc(C(=O)O)cc2)NC(=O)[C@H](Cc2ccc(-c3ccccc3)cc2)NC(=O)[C@H](Cc2ccc(C(=O)O)cc2)NC(=O)[C@H](Cc2cccc(C(F)(F)F)c2)NC(=O)[C@H](CC(=O)O)NC(=O)[C@H](Cc2ccc(OCC(=O)O)cc2)NC1=O [Example 1169] ({CH2CO}-S(Me)Y(Carboxymethyl)D[Phe(3-CF3)][Phe(4-COOH)][Bip][Phe(4-COOH)][NMeA][dL][Dab][Cha]VEC[Dab][AEEA][γGlu][AEEA]-{NH(CH2)12COOH}; thioether N-14),0.0606 µM
3,COC[C@@H]1NC(=O)CSC[C@@H](C(=O)N[C@@H](CCN)C(=O)NCCOCCOCC(=O)N[C@@H](CCC(=O)NCCOCCOCC(=O)NCCCCCCCCCCCCC(=O)O)C(=O)O)NC(=O)[C@H](CO)NC(=O)[C@H](C(C)(C)O)NC(=O)[C@H](CC2CCCCC2)NC(=O)[C@H](CCN)NC(=O)[C@@H](CC(C)C)NC(=O)[C@H](C)N(C)C(=O)[C@H](Cc2ccc(C(=O)O)cc2)NC(=O)[C@H](Cc2ccc(-c3ccccc3)cc2)NC(=O)[C@H](Cc2ccc(C(=O)O)cc2)NC(=O)[C@H](Cc2cccc(C(F)(F)F)c2)NC(=O)[C@H](CC(=O)O)NC(=O)[C@H](Cc2ccc(OCC(=O)O)cc2)NC1=O [Example 1170] ({CH2CO}-S(Me)Y(Carboxymethyl)D[Phe(3-CF3)][Phe(4-COOH)][Bip][Phe(4-COOH)][NMeA][dL][Dab][Cha][Val(3-OH)]SC[Dab][AEEA][γGlu][AEEA]-{NH(CH2)12COOH}; thioether N-14),0.054 µM
4,CC(C)C[C@H]1NC(=O)[C@H](C)N(C)C(=O)[C@H](CCC(N)=O)NC(=O)[C@H](Cc2ccc(-c3ccccc3)cc2)NC(=O)[C@H](Cc2ccc(C(=O)O)cc2)NC(=O)[C@H](Cc2cccc(C(F)(F)F)c2)NC(=O)[C@H](CC(=O)O)NC(=O)[C@H](Cc2ccc(OCC(=O)O)cc2)NC(=O)[C@H](CN2CCOCC2)NC(=O)CSC[C@@H](C(=O)N[C@@H](CCN)C(=O)NCCOCCOCC(=O)N[C@@H](CCC(=O)NCCOCCOCC(=O)NCCCCCCCCCCCCC(=O)O)C(=O)O)NC(=O)[C@H](CC(=O)O)NC(=O)[C@H](C(C)(C)O)NC(=O)[C@H](CC2CCCCC2)NC(=O)[C@H](CCN)NC1=O [Example 1171] ({CH2CO}-[Ala(morpholin-4-yl)]Y(Carboxymethyl)D[Phe(3-CF3)][Phe(4-COOH)][Bip]Q[NMeA][dL][Dab][Cha][Val(3-OH)]DC[Dab][AEEA][γGlu][AEEA]-{NH(CH2)12COOH}; thioether N-14),0.0412 µM
5,CC(C)C[C@H]1NC(=O)[C@H](C)N(C)C(=O)[C@H](CCC(N)=O)NC(=O)[C@H](Cc2ccc(-c3ccccc3)cc2)NC(=O)[C@H](Cc2ccc(C(=O)O)cc2)NC(=O)[C@H](Cc2cccc(C(F)(F)F)c2)NC(=O)[C@H](CC(=O)O)NC(=O)[C@H](Cc2ccc(OCC(=O)O)cc2)NC(=O)[C@H](CN2CCOCC2)NC(=O)CSC[C@@H](C(=O)N[C@@H](CCN)C(=O)NCCOCCOCC(=O)N[C@@H](CCC(=O)NCCOCCOCC(=O)NCCCCCCCCCCCCC(=O)O)C(=O)O)NC(=O)[C@H](CO)NC(=O)[C@H](C(C)(C)O)NC(=O)[C@H](CC2CCCCC2)NC(=O)[C@H](CCN)NC1=O [Example 1173] ({CH2CO}-[Ala(morpholin-4-yl)]Y(Carboxymethyl)D[Phe(3-CF3)][Phe(4-COOH)][Bip]Q[NMeA][dL][Dab][Cha][Val(3-OH)]SC[Dab][AEEA][γGlu][AEEA]-{NH(CH2)12COOH}; thioether N-14),0.0215 µM
6,CC(=O)NCCCC[C@@H]1NC(=O)[C@H](C(C)(C)O)NC(=O)[C@H](CC2CCCCC2)NC(=O)[C@H](CCN)NC(=O)[C@@H](CC(C)C)NC(=O)[C@H](C)N(C)C(=O)[C@H](CCC(N)=O)NC(=O)[C@H](Cc2ccc(-c3ccccc3)cc2)NC(=O)[C@H](Cc2ccc(C(=O)O)cc2)NC(=O)[C@H](Cc2cccc(C(F)(F)F)c2)NC(=O)[C@H](CC(=O)O)NC(=O)[C@H](Cc2ccc(OCC(=O)O)cc2)NC(=O)[C@H](CN2CCOCC2)NC(=O)CSC[C@@H](C(=O)N[C@@H](CCN)C(=O)NCCOCCOCC(=O)N[C@@H](CCC(=O)NCCOCCOCC(=O)NCCCCCCCCCCCCC(=O)O)C(=O)O)NC1=O [Example 1174] ({CH2CO}-[Ala(morpholin-4-yl)]Y(Carboxymethyl)D[Phe(3-CF3)][Phe(4-COOH)][Bip]Q[NMeA][dL][Dab][Cha][Val(3-OH)]K(Ac)C[Dab][AEEA][γGlu][AEEA]-{NH(CH2)12COOH}; thioether N-14),0.0234 µM
7,CC(C)C[C@H]1NC(=O)[C@H](C)N(C)C(=O)[C@H](CCCNC(N)=O)NC(=O)[C@H](Cc2ccc(-c3ccccc3)cc2)NC(=O)[C@H](Cc2ccc(C(=O)O)cc2)NC(=O)[C@H](Cc2cccc(C(F)(F)F)c2)NC(=O)[C@H](CC(=O)O)NC(=O)[C@H](Cc2ccc(OCC(=O)O)cc2)NC(=O)[C@H](CN2CCOCC2)NC(=O)CSC[C@@H](C(=O)N[C@@H](CCN)C(=O)NCCOCCOCC(=O)N[C@@H](CCC(=O)NCCOCCOCC(=O)NCCCCCCCCCCCCC(=O)O)C(=O)O)NC(=O)[C@H](CC(=O)O)NC(=O)[C@H](C(C)(C)O)NC(=O)[C@H](CC2CCCCC2)NC(=O)[C@H](CCN)NC1=O [Example 1175] ({CH2CO}-[Ala(morpholin-4-yl)]Y(Carboxymethyl)D[Phe(3-CF3)][Phe(4-COOH)][Bip][Cit][NMeA][dL][Dab][Cha][Val(3-OH)]DC[Dab][AEEA][γGlu][AEEA]-{NH(CH2)12COOH}; thioether N-14),0.0488 µM
8,CC(C)C[C@H]1NC(=O)[C@H](C)N(C)C(=O)[C@H](CCCNC(N)=O)NC(=O)[C@H](Cc2ccc(-c3ccccc3)cc2)NC(=O)[C@H](Cc2ccc(C(=O)O)cc2)NC(=O)[C@H](Cc2cccc(C(F)(F)F)c2)NC(=O)[C@H](CC(=O)O)NC(=O)[C@H](Cc2ccc(OCC(=O)O)cc2)NC(=O)[C@H](CN2CCOCC2)NC(=O)CSC[C@@H](C(=O)N[C@@H](CCN)C(=O)NCCOCCOCC(=O)N[C@@H](CCC(=O)NCCOCCOCC(=O)NCCCCCCCCCCCCC(=O)O)C(=O)O)NC(=O)[C@H](CCC(=O)O)NC(=O)[C@H](C(C)C)NC(=O)[C@H](CC2CCCCC2)NC(=O)[C@H](CCN)NC1=O [Example 1176] ({CH2CO}-[Ala(morpholin-4-yl)]Y(Carboxymethyl)D[Phe(3-CF3)][Phe(4-COOH)][Bip][Cit][NMeA][dL][Dab][Cha]VEC[Dab][AEEA][γGlu][AEEA]-{NH(CH2)12COOH}; thioether N-14),0.0156 µM
9,CC(C)C[C@H]1NC(=O)[C@H](C)N(C)C(=O)[C@H](CCCNC(N)=O)NC(=O)[C@H](Cc2ccc(-c3ccccc3)cc2)NC(=O)[C@H](Cc2ccc(C(=O)O)cc2)NC(=O)[C@H](Cc2cccc(C(F)(F)F)c2)NC(=O)[C@H](CC(=O)O)NC(=O)[C@H](Cc2ccc(OCC(=O)O)cc2)NC(=O)[C@H](CN2CCOCC2)NC(=O)CSC[C@@H](C(=O)N[C@@H](CCN)C(=O)NCCOCCOCC(=O)N[C@@H](CCC(=O)NCCOCCOCC(=O)NCCCCCCCCCCCCC(=O)O)C(=O)O)NC(=O)[C@H](CO)NC(=O)[C@H](C(C)(C)O)NC(=O)[C@H](CC2CCCCC2)NC(=O)[C@H](CCN)NC1=O [Example 1177] ({CH2CO}-[Ala(morpholin-4-yl)]Y(Carboxymethyl)D[Phe(3-CF3)][Phe(4-COOH)][Bip][Cit][NMeA][dL][Dab][Cha][Val(3-OH)]SC[Dab][AEEA][γGlu][AEEA]-{NH(CH2)12COOH}; thioether N-14),0.027 µM
10,CC(=O)NCCCC[C@@H]1NC(=O)[C@H](C(C)(C)O)NC(=O)[C@H](CC2CCCCC2)NC(=O)[C@H](CCN)NC(=O)[C@@H](CC(C)C)NC(=O)[C@H](C)N(C)C(=O)[C@H](CCCNC(N)=O)NC(=O)[C@H](Cc2ccc(-c3ccccc3)cc2)NC(=O)[C@H](Cc2ccc(C(=O)O)cc2)NC(=O)[C@H](Cc2cccc(C(F)(F)F)c2)NC(=O)[C@H](CC(=O)O)NC(=O)[C@H](Cc2ccc(OCC(=O)O)cc2)NC(=O)[C@H](CN2CCOCC2)NC(=O)CSC[C@@H](C(=O)N[C@@H](CCN)C(=O)NCCOCCOCC(=O)NC(CCC(=O)NCCOCCOCC(=O)NCCCCCCCCCCCCC(=O)O)C(=O)O)NC1=O (stereo partly drawn) [Example 1178] ({CH2CO}-[Ala(morpholin-4-yl)]Y(Carboxymethyl)D[Phe(3-CF3)][Phe(4-COOH)][Bip][Cit][NMeA][dL][Dab][Cha][Val(3-OH)]K(Ac)C[Dab][AEEA][ξγGlu][AEEA]-{NH(CH2)12COOH}; thioether N-14),0.0124 µM

# From US20260070945A1, “MACROCYCLIC IMMUNOMODULATORS” (Bristol-Myers Squibb Company, priority 2022, published 2026)
